Measured values published in patent publication EP1021178B1, “SELENOPHENE ANTI-TUMOR AGENTS” (Purdue Research Foundation, priority 1996, dated 1997).
Where two headings read alike, the source gives them in different places.

Experiments:
[1] = test system: MDA-MB-231/ATCC; assay: NCI human tumor cell panel; type: cell-based
[2] = test system: CCRF-CEM; assay: NCI human tumor cell panel; type: cell-based; conditions: read-out: Log10 LC50 (converted)
[3] = test system: SK-MEL-28; assay: NCI human tumor cell panel; type: cell-based; conditions: SK-MEL-28, read-out: Log10 LC50 (converted)
[4] = test system: UACC-257; assay: NCI human tumor cell panel; type: cell-based; conditions: UACC-257, read-out: Log10 LC50 (converted)
[5] = test system: HOP-62; assay: NCI human tumor cell panel; type: cell-based; conditions: HOP-62, read-out: Log10 LC50 (converted)
[6] = test system: BT-549; assay: NCI human tumor cell panel; type: cell-based; conditions: BT-549, read-out: Log10 LC50 (converted)
[7] = test system: HOP-92; assay: NCI human tumor cell panel; type: cell-based; conditions: HOP-92, read-out: Log10 LC50 (converted)
[8] = test system: T-47D; assay: NCI human tumor cell panel; type: cell-based; conditions: T47D, read-out: Log10 LC50 (converted)
[9] = test system: A549/ATCC; assay: NCI human tumor cell panel; type: cell-based; conditions: A549, read-out: Log10 LC50 (converted)
[10] = test system: COLO 205; assay: NCI human tumor cell panel; conditions: for CC50: COLO 205, read-out: Log10 LC50 (converted)
[11] = test system: human tumor cell line panels; assay: NCI human tumor cell panel, whole-panel summary (mean graph) and lines without a row head; conditions: for Log10 TGI, Delta / Log10 TGI, Range / Log10 LC50, Delta: whole panel
[12] = test system: SNB-19; assay: NCI human tumor cell panel; conditions: for CC50: SNB-19, read-out: Log10 LC50 (converted)
[13] = test system: SK-OV-3; assay: NCI human tumor cell panel; conditions: for CC50: SK-OV-3, read-out: Log10 LC50 (converted)
[14] = test system: HT29; assay: NCI human tumor cell panel; conditions: HT-29, read-out: Log10 LC50 (converted)
[15] = test system: NCI-H226; assay: NCI human tumor cell panel; conditions: for CC50: NCI-H226, read-out: Log10 LC50 (converted)
[16] = test system: SF-268; assay: NCI human tumor cell panel; type: cell-based; conditions: SF-268, read-out: Log10 LC50 (converted)
[17] = test system: RXF-393; assay: NCI human tumor cell panel; type: cell-based; conditions: RXF 393, read-out: Log10 LC50 (converted)
[18] = test system: HL-60(TB); assay: NCI human tumor cell panel; conditions: for CC50: HL-60, read-out: Log10 LC50 (converted); for IC (TGI): HL-60, read-out: Log10 TGI
[19] = MDA-MB-231, read-out: Log10 LC50, Breast Cancer (converted), MDA-MB-231/ATCC
[20] = Homo sapiens, read-out: Log10 TGI
[21] = MDA-MB-231, read-out: Log10 LC50, MDA-MB-231/ATCC (converted)
[22] = Homo sapiens, read-out: Log10 GI50, Delta, Delta, whole panel (converted)

Structure (SMILES)	CC50 [1, 19]	CC50 [2]	CC50 [3]	CC50 [4]	CC50 [5]	CC50 [6]	CC50 [7]	CC50 [8]	CC50 [9]	CC50 [10]	CC50 [12]	CC50 [13]	CC50 [14]	CC50 [15]	LC50 (concentration killing 50% of cells) [16]	CC50 [17]	CC50 [18]	Log10 TGI, Delta [11]	Log10 TGI, Range [11]	Log10 LC50, Delta [11]	also measured
O=Cc1ccc(-c2ccc(-c3ccc(C=O)[se]3)s2)s1	> 100 µM	> 100 µM	> 100 µM	> 100 µM	> 100 µM	> 100 µM	> 100 µM	> 100 µM	> 100 µM	91.2 µM	> 100 µM	> 100 µM	> 100 µM	> 100 µM	–	–	–	–	–	–	IC (TGI) [11, 20]: 44.7 µM; IC (TGI) ([12]; SNB-19, read-out: Log10 TGI): > 100 µM; IC (TGI) ([15]; NCI-H226, read-out: Log10 TGI): > 100 µM
OCc1ccc(-c2ccc(-c3ccc(CO)[se]3)s2)s1	97.7 µM	> 100 µM	> 100 µM	0.24 µM	85.1 µM	> 100 µM	> 100 µM	–	> 100 µM	61.7 µM	> 100 µM	51.3 µM	> 100 µM	–	–	–	–	–	–	–	–
OCc1ccc(-c2ccc(-c3ccc[se]3)s2)[se]1	> 100 µM	> 100 µM	> 100 µM	0.457 µM	> 100 µM	87.1 µM	> 100 µM	> 100 µM	> 100 µM	66.1 µM	> 100 µM	> 100 µM	> 100 µM	0.525 µM	> 100 µM	> 100 µM	> 100 µM	–	–	–	IC (TGI) ([10]; COLO 205, read-out: Log10 TGI): 12.6 µM
OCc1ccc(-c2ccc(-c3ccc[se]3)[se]2)[se]1	> 100 µM	> 100 µM	53.7 µM	–	44.7 µM	–	38 µM	44.7 µM	46.8 µM	> 100 µM	> 100 µM	–	58.9 µM	–	> 100 µM	–	> 100 µM	–	–	–	–
OCc1ccc(-c2ccc(-c3ccc(CO)[se]3)[se]2)[se]1	–	> 100 µM	> 100 µM	31.6 µM	57.5 µM	> 100 µM	55 µM	–	53.7 µM	17.8 µM	91.2 µM	–	66.1 µM	9.12 µM	20.9 µM	8.71 µM	–	–	–	–	IC (TGI) [11, 20]: 10.5 µM
OCc1ccc(-c2ccc(-c3ccc(CO)s3)[se]2)s1	> 100 µM	> 100 µM	> 100 µM	–	> 100 µM	> 100 µM	> 100 µM	> 100 µM	> 100 µM	22.9 µM	> 100 µM	> 100 µM	> 100 µM	> 100 µM	> 100 µM	> 100 µM	> 100 µM	–	–	–	IC (TGI) ([13]; SK-OV-3, read-out: Log10 TGI): > 100 µM
OCc1ccc(-c2ccc(-c3ccc(CO)[se]3)s2)[se]1	> 100 µM	> 100 µM	> 100 µM	–	> 100 µM	> 100 µM	0.324 µM	–	> 100 µM	–	> 100 µM	–	> 100 µM	> 100 µM	> 100 µM	> 100 µM	> 100 µM	–	–	–	–
OCc1ccc(-c2ccc(-c3cccs3)[se]2)s1	–	> 100 µM	> 100 µM	0.0525 µM	> 100 µM	> 100 µM	> 100 µM	> 100 µM	> 100 µM	–	> 100 µM	> 100 µM	> 100 µM	0.224 µM	> 100 µM	> 100 µM	> 100 µM	3.46	4.00	–	CC50 [1, 21]: > 100 µM; GI50 ([11]; Homo sapiens, read-out: Log10 GI50, MG_MID (converted)): 5.25 µM; CC50 ([11]; Homo sapiens, read-out: Log10 LC50, MG_MID (converted)): 61.7 µM; IC (TGI) ([11]; Homo sapiens, read-out: Log10 TGI, MG_MID): 28.8 µM
O=Cc1ccc(-c2ccc(-c3ccc(C=O)[se]3)s2)[se]1	–	> 100 µM	> 100 µM	6.92 µM	> 100 µM	> 100 µM	> 100 µM	> 100 µM	> 100 µM	> 100 µM	> 100 µM	> 100 µM	> 100 µM	2.45 µM	> 100 µM	> 100 µM	> 100 µM	-4.17	2.18	-4.07	CC50 [1, 21]: > 100 µM; IC (TGI) [18]: > 100 µM
O=Cc1ccc(-c2ccc(-c3ccc(C=O)[se]3)[se]2)[se]1	–	> 100 µM	> 100 µM	> 100 µM	> 100 µM	> 100 µM	> 100 µM	> 100 µM	> 100 µM	> 100 µM	> 100 µM	–	> 100 µM	> 100 µM	> 100 µM	> 100 µM	> 100 µM	-4.18	1.91	-4.02	CC50 [1, 21]: > 100 µM; GI50 [11, 22]: 21.4 µM
O=Cc1ccc(-c2ccc(-c3ccc[se]3)[se]2)[se]1	–	> 100 µM	55 µM	33.1 µM	74.1 µM	79.4 µM	63.1 µM	47.9 µM	51.3 µM	34.7 µM	87.1 µM	–	36.3 µM	38.9 µM	> 100 µM	> 100 µM	> 100 µM	-4.78	1.37	-4.25	GI50 [11, 22]: 3.72 µM
O=Cc1ccc(-c2ccc(-c3cccs3)[se]2)s1	–	> 100 µM	> 100 µM	0.309 µM	> 100 µM	> 100 µM	> 100 µM	91.2 µM	> 100 µM	> 100 µM	> 100 µM	> 100 µM	> 100 µM	1.05 µM	> 100 µM	> 100 µM	> 100 µM	-4.42	3.13	-4.13	GI50 [11, 22]: 6.76 µM
O=Cc1ccc(-c2ccc(-c3ccc(C=O)s3)[se]2)s1	–	> 100 µM	> 100 µM	5.75 µM	> 100 µM	> 100 µM	> 100 µM	> 100 µM	> 100 µM	> 100 µM	> 100 µM	> 100 µM	> 100 µM	8.51 µM	> 100 µM	> 100 µM	> 100 µM	-4.21	1.61	-4.07	CC50 [1, 21]: > 100 µM; GI50 [11, 22]: 17.8 µM; IC (TGI) [18]: > 100 µM
